Like-named read-outs stand apart in the source and are kept apart here.
Experiments:
Assay type in all cases: in vivo
Spodoptera eridania = assay: Southern armyworm (Spodoptera eridania), 2nd instar larvae, foliar spray on lima bean plants; conditions: 96 h, 2nd instar larvae on sprayed lima bean, 4 days after treatment, read-out: mortality in comparison with untreated controls
Description: B.4. Southern Armyworm (Spodoptera eridania), 2nd Instar Larvae
The active compounds were formulated by a Tecan liquid handler in 100% cyclohexanone as a 10,000-ppm solution supplied in tubes. The 10,000-ppm solution was serially diluted in 100% cyclohexanone to make interim solutions. These served as stock solutions for which final dilutions were made by the Tecan in 50% acetone:50% water (v/v) into 10 or 20 ml glass vials. A non-ionic surfactant (Kinetic®) was included in the solution at a volume of 0.01% (v/v). The vials were then inserted into an automated electrostatic sprayer equipped with an atomizing nozzle for application to plants/insects. Lima bean plants (variety Sieva) were grown 2 plants to a pot and selected for treatment at the 1st true leaf stage. Test solutions were sprayed onto the foliage by an auto-mated electrostatic plant sprayer equipped with an atomizing spray nozzle. The plants were dried in the sprayer fume hood and then removed from the sprayer. Each pot was placed into perforated plastic bags with a zip closure. Ten to 11 armyworm larvae were placed into the bag and the bags zipped closed. Test plants were maintained in a growth room at about 25° C. and about 20-40% relative humidity for 4 days, avoiding direct exposure to fluorescent light (14:10 light:dark photoperiod) to prevent trapping of heat inside the bags. Mortality and reduced feeding were assessed 4 days after treatment, compared to untreated control plants.

Myzus persicae = assay: Green peach aphid (Myzus persicae) systemic test, artificial diet in 96-well microtiter plates; conditions: 72 h, read-out: mortality in comparison with untreated controls
Description: If not otherwise specified, the test solutions were prepared as follow:
The active compound was dissolved at the desired concentration in a mixture of 1:1 (vol:vol) distilled water:acetone. The test solution was prepared on the day of use.
B.1 Green Peach Aphid (Myzus persicae)
For evaluating control of green peach aphid (Myzus persicae) through systemic means, the test unit consisted of 96-well-microtiter plates containing liquid artificial diet under an artificial mem brane.
The compounds were formulated using a solution containing 75% v/v water and 25% v/v DMSO. Different concentrations of formulated compounds were pipetted into the aphid diet, using a custom built pipetter, at two replications.
After application, 5-8 adult aphids were placed on the artificial membrane inside the microtiter plate wells. The aphids were then allowed to suck on the treated aphid diet and incubated at about 23±1° C. and about 50±5% relative humidity for 3 days. Aphid mortality and fecundity was then visually assessed.

Aedes aegypti = assay: whole plant or invertebrate; conditions: 48 h, larval mortality, 2 days, read-out: mortality in comparison with untreated controls
Description: B.5 Yellow Fever Mosquito (Aedes aegypti)
For evaluating control of yellow fever mosquito (Aedes aegypti) the test unit consisted of 96-well-microtiter plates containing 200 μl of tap water per well and 5-15 freshly hatched A. aegypti larvae.
The active compounds were formulated using a solution containing 75% (v/v) water and 25% (v/v) DMSO. Different concentrations of formulated compounds or mixtures were sprayed onto the insect diet at 2.5 μl, using a custom-built micro atomizer, at two replications.
After application, microtiter plates were incubated at 28±1° C., 80±5% RH for 2 days. Larval mortality was then visually assessed.

Anthonomus grandis = assay: Boll weevil (Anthonomus grandis) egg/larval test on insect diet in 96-well microtiter plates; conditions: 120 h, read-out: mortality in comparison with untreated controls
Description: B.3 Boll Weevil (Anthonomus grandis)
For evaluating control of boll weevil (Anthonomus grandis), the test unit consisted of 96-well-microtiter plates containing an insect diet and 5-10 A. grandis eggs.
The compounds were formulated using a solution containing 75% v/v water and 25% v/v DMSO. Different concentrations of formulated compounds were sprayed onto the insect diet at 5 μl, using a custom-built micro atomizer, at two replications.
After application, microtiter plates were incubated at about 25±1° C. and about 75±5% relative humidity for 5 days. Egg and larval mortality was then visually assessed.

Heliothis virescens = assay: Tobacco budworm (Heliothis virescens) egg/larval test on insect diet in 96-well microtiter plates; conditions: 120 h, read-out: mortality in comparison with untreated controls
Description: B.2 Tobacco Budworm (Heliothis virescens)
For evaluating control of tobacco budworm (Heliothis virescens), the test unit consisted of 96-well-microtiter plates containing an insect diet and 15-25 H. virescens eggs.
The compounds were formulated using a solution containing 75% v/v water and 25% v/v DMSO. Different concentrations of formulated compounds were sprayed onto the insect diet at 10 μl, using a custom-built micro atomizer, at two replications.
After application, microtiter plates were incubated at about 28±1° C. and about 80±5% relative humidity for 5 days. Egg and larval mortality was then visually assessed.

[1] = 2500 ppm, adult aphids on treated artificial diet, 3 days
[2] = 2500 ppm, egg and larval mortality, 5 days

CON=C(N)c1nccnc1C(C)NC(=O)c1cc(C(F)(F)F)cc(C(F)(F)F)c1 (stereo not shown) [I-5, N-[1-[3-[N′-methoxycarbamimidoyl]pyrazin-2-yl]ethyl]-3,5-bis(trifluoromethyl)benzamide]
≥ 75%: mortality at 300 ppm (Spodoptera eridania) | mortality at 2500 ppm (Myzus persicae; [1]) | mortality at 2500 ppm (Aedes aegypti) | mortality at 2500 ppm (Anthonomus grandis; [2]) | mortality at 2500 ppm (Heliothis virescens; [2])

CCN(C)C(=NO)c1nccnc1C(C)NC(=O)c1cc(C(F)(F)F)cc(C(F)(F)F)c1 (stereo not shown) [I-170, N-[1-[3-(N-ethyl-N′-hydroxy-N-methyl-carbamimidoyl)pyrazin-2-yl]ethyl]-3,5-bis(trifluoromethyl)benzamide]
≥ 75%: mortality at 2500 ppm (Myzus persicae) | mortality at 2500 ppm (Aedes aegypti) | mortality at 2500 ppm (Anthonomus grandis) | mortality at 2500 ppm (Heliothis virescens)

CON=C(C)c1nccnc1C(C)N(CC1CC1)C(=O)c1cc(Cl)cc(S(=O)(=O)c2ccc(F)cc2)c1 (stereo not shown) [I-17, 3-chloro-N-(cyclopropylmethyl)-5-(4-fluorophenyl)sulfonyl-N-[1-[3-(N-methoxy-C-methyl-carbonimidoyl)pyrazin-2-yl]ethyl]benzamide]
≥ 75%: mortality at 300 ppm (Spodoptera eridania) | mortality at 2500 ppm (Aedes aegypti) | mortality at 2500 ppm (Anthonomus grandis; [2])

CON=C(C)c1nccnc1C(C)N(CC1CC1)C(=O)c1cc(C(F)(F)F)cc(C2(C#N)CC2)c1 (stereo not shown) [I-9, 3-(1-cyanocyclopropyl)-N-(cyclopropylmethyl)-N-[1-[3-(N-methoxy-C-methyl-carbonimidoyl)pyrazin-2-yl]ethyl]-5-(trifluoromethyl)benzamide]
≥ 75%: mortality at 300 ppm (Spodoptera eridania) | mortality at 2500 ppm (Myzus persicae; [1]) | mortality at 2500 ppm (Aedes aegypti)

CC(NC(=O)c1cc(C(F)(F)F)cc(C(F)(F)F)c1)c1nccnc1C(N)=NO (stereo not shown) [I-3, N-[1-[3-[N′-hydroxycarbamimidoyl]pyrazin-2-yl]ethyl]-3,5-bis(trifluoromethyl)benzamide]
≥ 75%: mortality at 2500 ppm (Myzus persicae; [1]) | mortality at 2500 ppm (Aedes aegypti) | mortality at 2500 ppm (Anthonomus grandis; [2]) | mortality at 2500 ppm (Heliothis virescens; [2])

Source: patent US20250107528A1, “PYRAZINE COMPOUNDS FOR THE CONTROL OF INVERTEBRATE PESTS” (BASF SE, priority 2021, published 2025)
